Tests used:
[1] = tested on: isolated liver rough endoplasmic reticulum (RER); assay type: biochemical, rat
[2] = tested on: isolated liver rough endoplasmic reticulum (RER); assay type: biochemical, rat; remark: listed apart in the source

Row | Molecule | Degranulation (%) [1] | degranulation obtained from RNA/protein ratios [2] [%]
1 | ClCOCCl [Bis(Chloromethyl)ether] | 47. % | –
2 | NN [Hydrazine] | 2 - 4% | –
3 | CCC1(c2ccccc2)C(=O)NC(=O)NC1=O [Phenobarbital] | 0-6% | –
4 | Aflatoxin B1 | 1-3% | –
5 | EDTA | – | 59.8

Source: publication PMC2009656 (British Journal of Cancer, 1978)
